Data published in publication PMC10733463, “Berberine-microbiota interplay: orchestrating gut health through modulation of the gut microbiota and metabolic transformation into bioactive metabolites” (Frontiers in Pharmacology, 2023).

Legend:
jejunal microbiota = experiment: 16S rRNA gene sequencing, microbiota composition in the jejunum; format: in vivo, Ross 308 broiler chickens
caecal microbiota = experiment: 16S rRNA gene sequencing, microbiota composition in the caecum; format: in vivo, Ross 308 broiler chickens
[1] = 0.5 g berberine/kg feed, 21 days
[2] = 1 g berberine/kg feed vs normal diet, 21 days, LinDA-normalized abundance
[3] = 0.1 g berberine/kg feed vs normal diet, 21 days, LinDA-normalized abundance
[4] = 0.1 g berberine/kg feed, 21 days
[5] = 0.5 g berberine/kg feed vs normal diet, 21 days, LinDA-normalized abundance

In the case of `COc1ccc2cc3[n+](cc2c1OC)CCc1cc2c(cc1-3)OCO2` [Berberine, Berberine chloride], the “Mean relative abundance of Bacillaceae” value (jejunal microbiota; [1]) is reported as 0.04%, the “Mean relative abundance of Burkholderiaceae” value (jejunal microbiota; [1]) is reported as 5.60% and the “Mean relative abundance of Peptostreptococcaceae” value (jejunal microbiota; [1]) is reported as 0.52%. For the same compound, the “Mean relative abundance of Pseudomonadaceae” value (jejunal microbiota; [1]) was 0.35%, the “Mean relative abundance of Ruminococcaceae” value (jejunal microbiota; [1]) was 4.52% and the “Mean relative abundance of uncultured bacterium family (Tenericutes, Mollicutes RF39)” value (jejunal microbiota; [1]) was 0.02%. For the same compound, the “L2FC of LinDA-normalized abundance of Bacillaceae” value (jejunal microbiota; 0.5 vs 0 g berberine/kg feed) was 1.43, the “L2FC of LinDA-normalized abundance of Burkholderiaceae” value (jejunal microbiota; 0.5 vs 0 g berberine/kg feed) was 0.67 and the “L2FC of LinDA-normalized abundance of Peptostreptococcaceae” value (jejunal microbiota; 0.5 vs 0 g berberine/kg feed) was -1.12. The “L2FC of LinDA-normalized abundance of Pseudomonadaceae” value (jejunal microbiota; 0.5 vs 0 g berberine/kg feed) was 0.14, the “L2FC of LinDA-normalized abundance of Ruminococcaceae” value (jejunal microbiota; 0.5 vs 0 g berberine/kg feed) was -0.14 and the “L2FC of LinDA-normalized abundance of uncultured bacterium family (Tenericutes, Mollicutes RF39)” value (jejunal microbiota; 0.5 vs 0 g berberine/kg feed) was 0.60. For the same compound, the “L2 FC Butyricicoccus, 1 vs 0” value (jejunal microbiota; [2]) was -0.38, the “L2 FC Curtobacterium, 1 vs 0” value (jejunal microbiota; [2]) was -2.09 and the “L2 FC Gordonibacter, 1 vs 0” value (jejunal microbiota; [2]) was -1.79. The “Mean relative abundance (%) Butyricicoccus” value (jejunal microbiota; 1 g berberine/kg feed, 21 days) was 0.84%, the “Mean relative abundance (%) Curtobacterium” value (jejunal microbiota; 1 g berberine/kg feed, 21 days) was 0.06% and the “Mean relative abundance (%) Gordonibacter” value (jejunal microbiota; 1 g berberine/kg feed, 21 days) was 0.02%. For the same compound, the “Mean relative abundance of Bacillaceae” value (jejunal microbiota; 1 g berberine/kg feed, 21 days) was 0.04%, the “Mean relative abundance of Burkholderiaceae” value (jejunal microbiota; 1 g berberine/kg feed, 21 days) was 3.55% and the “Mean relative abundance of Peptostreptococcaceae” value (jejunal microbiota; 1 g berberine/kg feed, 21 days) was 0.26%. The “Mean relative abundance of Pseudomonadaceae” value (jejunal microbiota; 1 g berberine/kg feed, 21 days) was 0.35%, the “Mean relative abundance of Ruminococcaceae” value (jejunal microbiota; 1 g berberine/kg feed, 21 days) was 10.54% and the “Mean relative abundance of uncultured bacterium family (Tenericutes, Mollicutes RF39)” value (jejunal microbiota; 1 g berberine/kg feed, 21 days) was 0.00%. For the same compound, the “L2FC of LinDA-normalized abundance of Bacillaceae” value (jejunal microbiota; 1 vs 0 g berberine/kg feed) was 0.80, the “L2FC of LinDA-normalized abundance of Burkholderiaceae” value (jejunal microbiota; 1 vs 0 g berberine/kg feed) was 1.37 and the “L2FC of LinDA-normalized abundance of Peptostreptococcaceae” value (jejunal microbiota; 1 vs 0 g berberine/kg feed) was -3.21. For the same compound, the “L2FC of LinDA-normalized abundance of Pseudomonadaceae” value (jejunal microbiota; 1 vs 0 g berberine/kg feed) was 1.01, the “L2FC of LinDA-normalized abundance of Ruminococcaceae” value (jejunal microbiota; 1 vs 0 g berberine/kg feed) was 1.51 and the “L2FC of LinDA-normalized abundance of uncultured bacterium family (Tenericutes, Mollicutes RF39)” value (jejunal microbiota; 1 vs 0 g berberine/kg feed) was 0.00. For the same compound, the “Abundance of phylum Actinobacteria” value (jejunal microbiota; high dose (1 g/kg feed), p = 0.021) was “reduction”, the “Abundance of phylum Actinobacteria” value (jejunal microbiota; low dose (0.1 g/kg feed), p < 0.001) was “reduction” and the “L2 FC ASF356, 0.1 vs 0” value (caecal microbiota; [3]) was 3.88. The “L2 FC CHKCI001, 0.1 vs 0” value (caecal microbiota; [3]) was 1.33, the “L2 FC Family_ Lachnospiraceae, 0.1 vs 0” value (caecal microbiota; [3]) was -0.10 and the “L2 FC Fusicatenibacter, 0.1 vs 0” value (caecal microbiota; [3]) was 1.41. The “L2 FC uncultured genus of Peptostreptococcaceae, 0.1 vs 0” value (caecal microbiota; [3]) was 0.26, the “Mean relative abundance (%) ASF356” value (caecal microbiota; [4]) was 0.40% and the “Mean relative abundance (%) CHKCI001” value (caecal microbiota; [4]) was 0.02%. The “Mean relative abundance (%) Family_ Lachnospiraceae” value (caecal microbiota; [4]) was 2.08%, the “Mean relative abundance (%) Fusicatenibacter” value (caecal microbiota; [4]) was 0.06% and the “Mean relative abundance (%) uncultured genus of Peptostreptococcaceae” value (caecal microbiota; [4]) was 0.63%. The “Mean relative abundance of Peptostreptococcaceae” value (caecal microbiota; [4]) was 0.66%, the “L2FC of LinDA-normalized abundance of Peptostreptococcaceae” value (caecal microbiota; 0.1 vs 0 g berberine/kg feed) was 0.02 and the “L2 FC ASF356, 0.5 vs 0” value (caecal microbiota; [5]) was 4.47. For the same compound, the “L2 FC CHKCI001, 0.5 vs 0” value (caecal microbiota; [5]) was 2.34, the “L2 FC Family_ Lachnospiraceae, 0.5 vs 0” value (caecal microbiota; [5]) was 1.25 and the “L2 FC Fusicatenibacter, 0.5 vs 0” value (caecal microbiota; [5]) was 3.47. The “L2 FC uncultured genus of Peptostreptococcaceae, 0.5 vs 0” value (caecal microbiota; [5]) was -0.52, the “Mean relative abundance (%) ASF356” value (caecal microbiota; [1]) was 0.38% and the “Mean relative abundance (%) CHKCI001” value (caecal microbiota; [1]) was 0.03%. The “Mean relative abundance (%) Family_ Lachnospiraceae” value (caecal microbiota; [1]) was 5.61%, the “Mean relative abundance (%) Fusicatenibacter” value (caecal microbiota; [1]) was 0.32% and the “Mean relative abundance (%) uncultured genus of Peptostreptococcaceae” value (caecal microbiota; [1]) was 0.54%. For the same compound, the “Mean relative abundance of Peptostreptococcaceae” value (caecal microbiota; [1]) was 0.56%, the “L2FC of LinDA-normalized abundance of Peptostreptococcaceae” value (caecal microbiota; 0.5 vs 0 g berberine/kg feed) was -0.55 and the “L2 FC ASF356, 1 vs 0” value (caecal microbiota; [2]) was 3.78. For the same compound, the “L2 FC CHKCI001, 1 vs 0” value (caecal microbiota; [2]) was 1.13, the “L2 FC Family_ Lachnospiraceae, 1 vs 0” value (caecal microbiota; [2]) was 0.72 and the “L2 FC Fusicatenibacter, 1 vs 0” value (caecal microbiota; [2]) was 2.41. The “L2 FC uncultured genus of Peptostreptococcaceae, 1 vs 0” value (caecal microbiota; [2]) was -8.12, the “Mean relative abundance (%) ASF356” value (caecal microbiota; 1 g berberine/kg feed, 21 days) was 0.32% and the “Mean relative abundance (%) CHKCI001” value (caecal microbiota; 1 g berberine/kg feed, 21 days) was 0.02%. For the same compound, the “Mean relative abundance (%) Family_ Lachnospiraceae” value (caecal microbiota; 1 g berberine/kg feed, 21 days) was 5.61%, the “Mean relative abundance (%) Fusicatenibacter” value (caecal microbiota; 1 g berberine/kg feed, 21 days) was 0.12% and the “Mean relative abundance (%) uncultured genus of Peptostreptococcaceae” value (caecal microbiota; 1 g berberine/kg feed, 21 days) was 0.00%. The “Mean relative abundance of Peptostreptococcaceae” value (caecal microbiota; 1 g berberine/kg feed, 21 days) was 0.00%, the “L2FC of LinDA-normalized abundance of Peptostreptococcaceae” value (caecal microbiota; 1 vs 0 g berberine/kg feed) was -7.85 and the “Observed number of OTUs” value (caecal microbiota; lowest concentration (0.1 g/kg feed), p = 0.041) was “significantly increased”. For the same compound, the “Bacterial richness (Observed number of OTUs)” value (caecal microbiota; middle concentration (0.5 g/kg feed), p = 0.087) was “tended to increase”.
